Among the data in patent US11767320B2, “Bicyclic dione compounds as inhibitors of KRAS” (INCYTE CORPORATION, priority 2020, dated 2023) are IC50 values, retold here.

Experiment [1] deals with MIA PaCa-2 (KRAS G12C) cells. The experiment can be described thus: Cellular pERK HTRF assay. It is filed as cell-based. To be noted: Homo sapiens; MIA PaCa-2 cells, 4 hours, phospho-ERK 1/2 HTRF; read-out: G12C_pERK (KRAS_G12C pERK assay IC50). How it is done: MIA PaCa-2 (KRAS G12C; ATCC® CRL-1420), A427 (KRAS G12D; ATCC® HTB53), HPAF-II (KRAS G12D; ATCC® CRL-1997) and NCI-H838 (KRAS WT; ATCC® CRL-5844) cells are purchased from ATCC and maintained in RPMI 1640 media supplemented with 10% FBS (Gibco/Life Technologies). The cells are plated at 5000 cells per well (8 uL) into Greiner 384-well low volume, flat-bottom, tissue culture treated white plates and incubated overnight at 37° C. 5% CO2. The next morning, test compound stock solutions are diluted in media at 3× the final concentration, and 4 uL are added to the cells. The plate is mixed by gentle rotation for 30 seconds (250 rpm) at room temperature. The cells are incubated with the KRAS G12C and G12D compounds for 4 hours or 2 hours respectively at 37° C., 5% CO2.
4 uL of 4× lysis buffer with blocking reagent (1:25) (Cisbio) are added to each well and plates are rotated gently (300 rpm) for 30 minutes at room temperature. 4 uL per well of Cisbio anti Phospho-ERK 1/2 d2 is mixed with anti Phospho-ERK 1/2 Cryptate (1:1) are added to each well, mixed by rotation and incubated overnight in the dark at room temperature. Plates are read on the Pherastar plate reader at 665 nm and 620 nm wavelengths. IC50 determination is performed by fitting the curve of inhibitor percent inhibition versus the log of the inhibitor concentration using the GraphPad Prism 7 software.

A further experiment addresses KRAS G12C (Homo sapiens, UniProt P01116, G12C). Kind of experiment: GDP-GTP exchange assay (fluorescence based guanine nucleotide exchange, bodipy-GDP for GppNHp, SOS1). The experiment is classed as biochemical. The following applies: bodipy-loaded KRAS G12C, 2 hours pre-incubation with inhibitor, read-out: G12C_exchange (KRAS_G12C exchange assay IC50). Summed up: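 Bodipy-GDP-loaded KRAS G12C (5-25 nM final) pre-incubated 2 h with inhibitor in Hepes pH 7.5, MgCl2 buffer, then exchange started with 500 uM GppNHp and 150 nM SOS1 for 2 h at ambient temperature. G12D and G12V used 2.5 nM protein, with 4 h and 3 h exchange respectively. Fluorescence read at 485/520 nm; IC50 from four-parameter logistic fit.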

In experiment [2] the test system is MIA PaCa-2 cells (KRAS G12C). Kind of experiment: Whole blood pERK1/2 HTRF assay. The experiment is classed as cell-based. The following applies: Homo sapiens, compound in whole blood, 4 hours, phospho-ERK 1/2 HTRF, read-out: G12C_WB_pERK assay IC50. On the procedure: MIA PaCa-2 cells (KRAS G12C; ATCC® CRL-1420) and HPAF-II (KRAS G12D; ATCC® CRL-1997) are maintained in RPMI 1640 with 10% FBS (Gibco/Life Technologies). The cells are seeded into 96 well tissue culture plates (Corning #3596) at 25000 cells per well in 100 uL media and cultured for 2 days at 37° C. 5% CO2 so that they are approximately 80% confluent at the start of the assay. Whole Blood are added to the 1 uL dots of compounds (prepared in DMSO) in 96 well plates and mixed gently by pipetting up and down so that the concentration of the compound in blood is 1× of desired concentration. The media is aspirated from the cells and 50 uL per well of whole blood with G12C or G12D compound is added and incubated for 4 or 2 hours respectively at 37° C. 5% CO2. After dumping the blood, the plates are gently washed twice by adding PBS to the side of the wells and dumping the PBS from the plate onto a paper towel, tapping the plate to drain well. 50 ul/well of 1× lysis buffer #1 (Cisbio) with blocking reagent (1:25) (Cisbio) is then added and incubated at room temperature for 30 minutes with shaking (250 rpm). Following lysis, 16 uL of lysate is transferred into 384-well Greiner small volume white plate using an Assist Plus (Integra Biosciences, NH). 4 uL of 1:1 mixture of anti Phospho-ERK 1/2 d2 and anti Phospho-ERK 1/2 Cryptate (Cisbio) is added to the wells using the Assist Plus and incubated at room temperature overnight in the dark. Plates are read on the Pherastar plate reader at 665 nm and 620 nm wavelengths. IC50 determination is performed by fitting the curve of inhibitor percent inhibition versus the log of the inhibitor concentration using the GraphPad Prism 7 software.

KRAS G12C, sequence (P01116 1-188 isoform P01116-2 G12C): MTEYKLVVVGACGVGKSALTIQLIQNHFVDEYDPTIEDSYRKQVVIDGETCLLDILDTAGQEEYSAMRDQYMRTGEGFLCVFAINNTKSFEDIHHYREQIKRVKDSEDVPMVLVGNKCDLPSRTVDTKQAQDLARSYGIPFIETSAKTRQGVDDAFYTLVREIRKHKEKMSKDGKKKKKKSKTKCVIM

Turning to `C=CC(=O)N1CC(Cn2c(=O)c(=O)n(-c3c(C)ccnc3C(C)C)c3nc(-c4c(O)cccc4F)c(Cl)cc32)(OC)C1` [Example 38, 1-((1-acryloyl-3-methoxyazetidin-3-yl)methyl)-7-chloro-6-(2-fluoro-6-hydroxyphenyl)-4-(2-isopropyl-4-methylpyridin-3-yl)-1,4-dihydropyrido[2,3-b]pyrazine-2,3-dione], the IC50 (in experiment [1]; on KRAS G12C) was 100 to 1000 nM each time.

For `C=CC(=O)N1CC(Cn2c(=O)c(=O)n(-c3c(C)ccnc3C(C)C)c3nc(-c4c(O)ccc(F)c4F)c(Cl)cc32)(OC)C1` [Example 39, 1-((1-acryloyl-3-methoxyazetidin-3-yl)methyl)-7-chloro-6-(2,3-difluoro-6-hydroxyphenyl)-4-(2-isopropyl-4-methylpyridin-3-yl)-1,4-dihydropyrido[2,3-b]pyrazine-2,3-dione], the IC50 (in experiment [1]; at KRAS G12C) was 100 to 1000 nM in each case.

For the compound `C=CC(=O)N1CC(Cn2c(=O)c(=O)n(-c3c(C)ccnc3C(C)C)c3nc(-c4c(N)cccc4F)c(Cl)cc32)(OC)C1` [Example 40, 1-((1-acryloyl-3-methoxyazetidin-3-yl)methyl)-6-(2-amino-6-fluorophenyl)-7-chloro-4-(2-isopropyl-4-methylpyridin-3-yl)-1,4-dihydropyrido[2,3-b]pyrazine-2,3-dione], the IC50 (in experiment [1]; at KRAS G12C) was 100 to 1000 nM in each case.

For the compound `C=CC(=O)N1CC(O)(Cn2c(=O)c(=O)n(-c3c(C)ccnc3C(C)C)c3nc(-c4c(O)cccc4F)c(Cl)cc32)C1` [Example 42, 1-((1-acryloyl-3-hydroxyazetidin-3-yl)methyl)-7-chloro-6-(2-fluoro-6-hydroxyphenyl)-4-(2-isopropyl-4-methylpyridin-3-yl)-1,4-dihydropyrido[2,3-b]pyrazine-2,3-dione], the results for the IC50 (in experiment [1]; on KRAS G12C) were 100 to 1000 nM and no more than 100 nM, respectively.

On to `C=CC(=O)N1CC(O)(Cn2c(=O)c(=O)n(-c3c(C)ccnc3C(C)C)c3nc(-c4c(O)ccc(F)c4F)c(Cl)cc32)C1` [Example 45, 1-((1-acryloyl-3-hydroxyazetidin-3-yl)methyl)-7-chloro-6-(5,6-difluoro-2-hydroxyphenyl)-4-(2-isopropyl-4-methylpyridin-3-yl)-1,4-dihydropyrido[2,3-b]pyrazine-2,3-dione], for which the IC50 was 1000 to 5000 nM in experiment [1] and no more than 100 nM on KRAS G12C.

Regarding `[2H]C([2H])(n1c(=O)c(=O)n(-c2c(C)ccnc2C(C)C)c2nc(-c3c(F)ccc(C)c3O)c(Cl)cc21)C1(F)CN(C(=O)C=C)C1` [Example 47, 1-((1-acryloyl-3-fluoroazetidin-3-yl)methyl-d2)-7-chloro-6-(6-fluoro-2-hydroxy-3-methylphenyl)-4-(2-isopropyl-4-methylpyridin-3-yl)-1,4-dihydropyrido[2,3-b]pyrazine-2,3-dione], the IC50 (in experiment [1]; at KRAS G12C) was no more than 100 nM throughout.

For the compound `[2H]C([2H])(n1c(=O)c(=O)n(-c2c(C)ccnc2C(C)C)c2nc(-c3cccc(Cl)c3Cl)c(Cl)cc21)C1(F)CN(C(=O)C=C)C1` [Example 51, 1-((1-acryloyl-3-fluoroazetidin-3-yl)methyl-d2)-7-chloro-6-(2,3-dichlorophenyl)-4-(2-isopropyl-4-methylpyridin-3-yl)-1,4-dihydropyrido[2,3-b]pyrazine-2,3-dione], the IC50 (in experiment [1]; at KRAS G12C) was no more than 100 nM in each case.

Consider `C=CC(=O)N1CC(F)(Cn2c(=O)c(=O)n(-c3c(C)ccnc3C(C)C)c3nc(-c4c(O)cccc4Cl)c(Cl)cc32)C1` [Example 56, 1-((1-acryloyl-3-fluoroazetidin-3-yl)methyl)-7-chloro-6-(2-chloro-6-hydroxyphenyl)-4-(2-isopropyl-4-methylpyridin-3-yl)-1,4-dihydropyrido[2,3-b]pyrazine-2,3-dione], for which the IC50 (in experiment [1]; at KRAS G12C; in experiment [2]) was no more than 100 nM each time.

With `C=CC(=O)N1CC(F)(Cn2c(=O)c(=O)n(-c3c(C)ccnc3C(C)C)c3nc(-c4c(Cl)cccc4OC)c(Cl)cc32)C1` [Example 57, 1-((1-acryloyl-3-fluoroazetidin-3-yl)methyl)-7-chloro-6-(2-chloro-6-methoxyphenyl)-4-(2-isopropyl-4-methylpyridin-3-yl)-1,4-dihydropyrido[2,3-b]pyrazine-2,3-dione], the IC50 (in experiment [1]; on KRAS G12C; in experiment [2]) was no more than 100 nM throughout.

As to `C=CC(=O)N1CC(F)(Cn2c(=O)c(=O)n(-c3c(C)ccnc3C(C)C)c3nc(-c4c(C)cccc4OC)c(Cl)cc32)C1` [Example 58, 1-((1-acryloyl-3-fluoroazetidin-3-yl)methyl)-7-chloro-4-(2-isopropyl-4-methylpyridin-3-yl)-6-(2-methoxy-6-methylphenyl)-1,4-dihydropyrido[2,3-b]pyrazine-2,3-dione], the IC50 in experiment [1] is no more than 100 nM; at KRAS G12C, no more than 100 nM; in experiment [2] it was 100 to 1000 nM.

Turning to `C=CC(=O)N1CC(F)(Cn2c(=O)c(=O)n(-c3c(C)ccnc3C(C)C)c3nc(-c4c(Cl)cccc4CO)c(Cl)cc32)C1` [Example 59, 1-((1-acryloyl-3-fluoroazetidin-3-yl)methyl)-7-chloro-6-(2-chloro-6-(hydroxymethyl)phenyl)-4-(2-isopropyl-4-methylpyridin-3-yl)-1,4-dihydropyrido[2,3-b]pyrazine-2,3-dione], the figures for the IC50 (in experiment [1]; at KRAS G12C; in experiment [2]) were no more than 100 nM, no more than 100 nM and 100 to 1000 nM, respectively.

For the compound `C=CC(=O)N1CC(F)(Cn2c(=O)c(=O)n(-c3c(C)ccnc3C(C)C)c3nc(-c4c(Cl)ccc5c4OCO5)c(Cl)cc32)C1` [Example 60, 1-((1-acryloyl-3-fluoroazetidin-3-yl)methyl)-7-chloro-6-(5-chlorobenzo[d][1,3]dioxol-4-yl)-4-(2-isopropyl-4-methylpyridin-3-yl)-1,4-dihydropyrido[2,3-b]pyrazine-2,3-dione], the IC50 in experiment [1] was no more than 100 nM; at KRAS G12C it was no more than 100 nM; in experiment [2], 100 to 1000 nM.

Consider `C=CC(=O)N1CC(F)(Cn2c(=O)c(=O)n(-c3c(C(C)C)ccnc3C(C)C)c3nc(-c4c(O)cccc4Cl)c(Cl)cc32)C1` [Example 61, 1-((1-acryloyl-3-fluoroazetidin-3-yl)methyl)-7-chloro-6-(2-chloro-6-hydroxyphenyl)-4-(2,4-diisopropylpyridin-3-yl)-1,4-dihydropyrido[2,3-b]pyrazine-2,3-dione], for which the IC50 (in experiment [1]; at KRAS G12C; in experiment [2]) was no more than 100 nM throughout.

Consider `C=CC(=O)N1CC(F)(Cn2c(=O)c(=O)n(-c3c(C(C)C)ccnc3C(C)C)c3nc(-c4c(Cl)cccc4OC)c(Cl)cc32)C1` [Example 62, 1-((1-acryloyl-3-fluoroazetidin-3-yl)methyl)-7-chloro-6-(2-chloro-6-methoxyphenyl)-4-(2,4-diisopropylpyridin-3-yl)-1,4-dihydropyrido[2,3-b]pyrazine-2,3-dione], for which the IC50 (in experiment [1]; at KRAS G12C; in experiment [2]) was no more than 100 nM throughout.

As to `C=CC(=O)N1CC(F)(Cn2c(=O)c(=O)n(-c3c(C(C)C)ccnc3C(C)C)c3nc(-c4c(C)cccc4OC)c(Cl)cc32)C1` [Example 63], the IC50 (in experiment [1]; on KRAS G12C; in experiment [2]) was no more than 100 nM in each case.
